Data published in US12369577B2, “Monoterpenoid/phenylpropanoid-containing compounds and methods of their making and use as baits” (KITTRICH CORPORATION, priority 2016, dated 2025).
“Also recorded” adds a separate entry of the source.

How the values were obtained:
[1] = test system: German cockroaches (Blattella germanica); test: German cockroach feeding assay (compound in crushed Cheerios); assay type: in vivo; conditions: for mortality at two weeks: 15% w/w food, two weeks (FIG. 3); for percentage mortality compared to the control at two weeks / percentage mortality compared to the control: 3.75% weight compound/weight food; for percentage mortality compared to the control at two weeks: α=0.05 (FIG. 2); for percentage mortality compared to the control: 1, 2, and 3 weeks (FIG. 1)
Method: Insects were kept in a constant 12:12-hour light: dark cycle and fed a diet of dry cat food (Purina® Cat Chow Complete®, rolled oats (HyVEE® Old Fashioned Oats), and Fluker's® Cricket Quencher.
Five adult German cockroaches (Blattella germanica) were introduced to mason jars with steel mesh at the top to prevent escape. 266.6 mg of crushed Cheerios™ (approximately two cheerios) was mixed with compound at varying concentrations by weight food. If the material was solid, a mortar and pestle was used to homogenize the crushed Cheerios and compound. If the material was a liquid, it was dissolved in acetone and aliquoted into the food slowly until the desired concentration of compound by weight food was achieved. If acetone was used as the carrier throughout the experiment, the food was carefully stirred repeatedly to ensure evaporation so that no more acetone was present in the food. This was done to prevent mortality due to the presence of solvent in the treated food. Controls consisted of food that was treated with approximately 1 mL of just acetone. […] Concentrations used to assess mortality were 3.75% and 15% weight compound by weight food. Total mortality was assessed at 2 weeks after introducing cockroaches into individual mason jars with food treated with different compounds.
Data is presented as average percentage mortality with the standard error of the mean (SEM). A minimum of three replicates were performed for each compound and a ANOVA with a post-hoc Student Newman-Kuels test was performed to compare individual treatments to the control (α=0.05).

[2] = test system: house flies (Musca domestica); conditions: in vivo
Method: House flies (Musca domestica) were obtained from an established colony maintained by the Pesticide Toxicology Laboratory, Department of Entomology at iowa State University, Ames IA Flies were maintained according to standard laboratory protocols. House flies were supplied with water via cotton wick and solid support of sugar and dry milk (mixed 1:1), ad libitum. Prior to testing, house flies were maintained at a temperature of 24±2° C., were held at 30%±10% relative humidity, and a 12:12 hr light:dark photoperiod. Flies were randomly chosen from one of three separate Bioquip BugDorm® cages on different days to prevent a potential bias in health.

[3] = test system: house flies (Musca domestica); test: House fly feeding assay, solid food, choice assay; assay type: in vivo; conditions: 15% w/w food; treated and untreated food; 5-days post exposure (FIG. 6)
Excerpt: The choice assay included one untreated food source of 1:1 evaporated milk powder and sucrose and one treated food source (with toxic biorational compounds) comprised of the same materials. Moreover, toxic insecticidal bait compounds were incorporated into the food mixture at a concentration of 15% w/w food. This increased concentration of toxic insecticidal bait was chosen to account for the concomitant lower percentage mortality expected due to the presence of both a treated and untreated food source. Mortality was recorded at 5-days post exposure.
Data is presented as average percentage mortality with the standard error of the mean (SEM). This number was compared to the total number of flies introduced to each aquaria for each replicate, and a percentage mortality was calculated. A minimum of three replicates were performed for each compound.

[4] = test system: house flies (Musca domestica); test: House fly feeding assay, solid food, non-choice; assay type: in vivo; conditions: 5% weight/weight food compound plus 0.5% Z-9-tricosene (Muscalure) (FIG. 5)
Excerpt: Approximately 20-30 adult house flies (Musca domestica) were introduced into aquaria (2.5 gallon) with a French square filled with de-ionized water. Cotton dental wicks were used to draw water up and present it to flies at the top of the French square. Different concentrations of compounds were introduced into 1:1 mixtures of evaporated milk powder and sucrose. 2 grams of food was provided to flies with compound incorporated at various weights by weight food. If the material was solid, a mortar and pestle was used to homogenize the crushed evaporated milk powder, sucrose, and compound. If the material was a liquid, it was dissolved in acetone and aliquotted into the food slowly until the desired concentration of compound by weight food was achieved. If acetone was used as the carrier throughout the experiment, the food was carefully stirred repeatedly to ensure evaporation so that no more acetone was present in the food. The concentration used to assess mortality was 5% weight compound by weight food. Total mortality was assessed at 5 days after introducing house flies into individual mason jars with food treated with different compounds. […]
Data is presented as average percentage mortality with the standard error of the mean (SEM). This number was compared to the total number of flies introduced to each aquaria for each replicate, and a percentage mortality was calculated. […]

[5] = test system: Northern house mosquitoes (Culex pipiens); conditions: 0.1%

Q: With `CC(C)=CCCC(C)CC(=O)OC1C(OC(=O)CC(C)CCC=C(C)C)C(OC(=O)CC(C)CCC=C(C)C)C(OC(=O)CC(C)CCC=C(C)C)C(OC(=O)CC(C)CCC=C(C)C)C1OC(=O)CC(C)CCC=C(C)C` (centres unmarked) [hexacitronellyl inositol, hexacitronelloylinositol] as the compound, how does the “mortality at two weeks” value [1] read?
A: Its value is 100%.

Q: How did the “percentage mortality at 120 hours” value [2] turn out when `OB(O)O` [boric acid, reference compound] was run?
A: The value was 100%.

Q: How did the “percentage mortality at 120 hours” value [2] turn out when `Cc1ccc(C(C)C)c(O)c1` [thymol, reference compound] was run?
A: Its value is 25±10.7%.

Q: Which “toxicity and palatability in choice assay” value (“toxicity and palatability” below) [3] does the source give for `CC(C)=CCC/C(C)=C/COC(=O)COc1cc(C)ccc1C(C)C` [geranyl thymyloxyacetate] here?
A: The value was “significant levels of toxicity”.

Q: For `CC(C)=CCCC(C)CC(=O)OCC(O)COC(=O)CC(C)CCC=C(C)C` (centres unmarked) [dicitronelloyl glycerol, dicitronelloylglycerol], which “percentage mortality compared to the control at two weeks” value [1] is on record?
A: The value was “statistically significant percentage mortality compared to the control”.

Q: Which “percentage mortality with added Z-9-tricosene” value [4] does the source give for `O=C(CCCCC(=O)OC/C=C/c1ccccc1)OC/C=C/c1ccccc1` [dicinnamyl adipate] here?
A: The value was “higher percentage mortality; also recorded: increased toxicity”.

Q: `CCCCCOC(=O)COc1cc(C)ccc1C(C)C` [amyl ester of thymyloxyacetic acid, amyl thymyloxyacetate] was tested. Which “toxicity and palatability” value [3] did it give?
A: Its value is “significant levels of toxicity”.

Q: What does the source list for `CC(C)=CCCC(C)CC(=O)OCCOC(=O)CC(C)CCC=C(C)C` (centres unmarked) [ethylene dicitronellate]?
A: percentage mortality compared to the control [1]: considerably higher percentage mortality at all time points compared to the control group; percentage mortality compared to the control ([1]; listed as Ethylene dicitronellate): considerably higher percentage mortality compared to the control; percentage mortality compared to the control at two weeks [1]: statistically significant percentage mortality compared to the control; mortality at two weeks [1]: 100%

Q: Which “mortality compared with boric acid” value [2] does the source give for `Cc1ccc(C(C)C)c(OCC(=O)O)c1` [thymyloxyacetic acid] here?
A: The value was “performed similarly”.

Q: And the “percentage mortality at 48 hours” value [2]?
A: The value was 26.7%.

Q: What about the “percentage mortality at 72 hours” value [2] of the same compound?
A: The value was 80%.

Q: What about the “percentage mortality at 96 hours” value [2] of the same compound?
A: Its value is 93.3%.

Q: What about the “percentage mortality at 120 hours” value [2] of the same compound?
A: The value was 100%.

Q: And the “percentage mortality compared to boric acid (FIG. 8 legend)” value ([5]; 96, 120, and 144 hours)?
A: The value was “higher numerical percentage mortality than boric acid”.

Q: What about the “percentage mortality compared to the sucrose-only control” value ([5]; 96, 120, and 144 hours (FIG. 8)) of the same compound?
A: The value was “statistically significant percentage mortality compared to the sucrose-only control”.

Q: What about the “percentage mortality compared to boric acid” value ([5]; 120 and 144 hours) of the same compound?
A: The value was “much higher numerical percentage mortality compared to boric acid”.

Q: What about the maximum percentage mortality ([5]; 144 hours after introduction) of the same compound?
A: Its maximum percentage mortality is 95±3.53%.

Q: And the “performance compared with boric acid” value ([5]; all time points, lack of statistical significance)?
A: Its value is “performed as well as boric acid”.

Q: With `Cc1ccc(C(C)C)c(OCC(=O)OC(C)C)c1` [isopropyl ester of thymyloxyacetic acid] as the compound, how does the “toxicity and palatability” value [3] read?
A: The value was “significant levels of toxicity”.

Q: With `CC(C)=CCCC(C)CCOC(=O)COc1cc(C)ccc1C(C)C` (centres unmarked) as the compound, how does the “toxicity and palatability” value [3] read?
A: Its value is “significant levels of toxicity”.
